Legend:
[1] = 4-week oral toxicity study in rats; details: 103 or 1030 mg lanthanum/kg/day for 4 weeks
Description: A study was conducted to assess the toxicity of lanthanum hydroxycarbonate. Rats were dosed orally with lanthanum hydroxycarbonate (103 or 1030 mg lanthanum/kg/day), lanthanum carbonate tetrahydrate (103 or 1030 mg lanthanum/kg/day) or vehicle for 4 weeks.

[2] = In vitro phosphorus binding of lanthanum compounds
Description: In order to evaluate the efficacy of lanthanum hydroxycarbonate as a phosphate binder, the in vitro phosphorus binding of lanthanum hydroxycarbonate and lanthanum carbonate tetrahydrate were measured using the methodology described below:
The equivalent of 1 g elemental lanthanum as either lanthanum hydroxycarbonate or as lanthanum carbonate tetrahydrate was added to 500 mL of 0.1N HCl at 37° C. and adjusted to pH 1 with HCl which contained 300 mg of phosphorus. The preparation was stirred and sampled at regular intervals. This sample was filtered and the filtrate measured for phosphorus content using a Sigma Diagnostics Kit for Inorganic Phosphorus determination. The loss of phosphorus from the filtrate represents the amount of phosphorus bound by lanthanum and precipitated then retained on the filter.

| SMILES | Plasma exposure to lanthanum [1] | rates of in vitro phosphate binding as compared to lanthanum carbonate tetrahydrate ([2]; dosed at the same level of elemental lanthanum) | more effective at binding phosphate in vitro, compared to lanthanum carbonate tetrahydrate ([2]; pH 1, same level of elemental lanthanum) |
| --- | --- | --- | --- |
| O.O.O.O.O=C([O-])[O-].O=C([O-])[O-].O=C([O-])[O-].[La+3].[La+3] [lanthanum carbonate tetrahydrate, Lanthanum carbonate tetrahydrate] | similar |  |  |
| O=C([O-])[O-].[La+3].[OH-] [lanthanum hydroxycarbonate] |  | improved rates of in vitro phosphate binding | approximately 50% |
